“Also recorded” adds a separate entry of the source. Bridge positions count the residues as written; N and C are the ends. Square brackets hold non-standard residues; d marks the D form. Ends that are not written are not given here. R8 = C=CCCCCCC[C@@](C)(N)C(=O)O; S5 = C=CCCC[C@](C)(N)C(=O)O; Nle = CCCC[C@H](N)C(=O)O; CycB = not defined here; βAla = NCCC(=O)O
How the values were obtained:
[1] = test system: cells; assay: Cellular uptake and intracellular distribution of TAMRA-labeled peptides by fluorescence microscopy; details: for Distribution/Observations: TAMRA-labeled peptides 10 μM, approximately 1 hour incubation, fluorescence microscope
Text: In Vitro Cell Uptake Assays: To assess cellular uptake of cargoes that are bound to cell-permeable stapled peptide modules, fluorescent tracers (e.g. TAMRA, FITC) are attached to the cell-permeable stapled peptide modules or the cargos. The cellular uptake can be tracked by, e.g., epifluorescence microscopy, fluorescence microscopy, confocal microscopy, and/or flow cytometry, at different time periods. In this manner, the rate of uptake and the intracellular distribution patterns of the stabilized peptides (e.g., CPSPs and CPSP-conjugates, other cell-permeable stapled peptides) can also be determined.
CPSP1-CPSP9 and L-CPSP (where L is an F-actin staining peptide) were labeled with a fluorescent dye, TAMRA. […] These TAMRA-labeled peptides (10 μM) were added to cell culture. After incubating the peptides with the cells for approximately 1 hour, the cells were examined by a fluorescence microscope.
Furthermore, TAMRA-labeled CPSP3 (SEQ ID NO: 14) (10 μM) and MitoTracker were both added to the cell culture.

[2] = target: T1, MCL-1 (Homo sapiens, UniProt Q07820); assay: Intracellular binding assay: colocalization with expressed MCL-1 ectopically targeted to the nuclear lamina; assay type: cell-based; details: colocalization at nuclear lamina with ectopically targeted MCL-1 (FIG. 5)
T1 construct: expressed in transfected cells
T1 sequence (Q07820 whole entry, species assumed): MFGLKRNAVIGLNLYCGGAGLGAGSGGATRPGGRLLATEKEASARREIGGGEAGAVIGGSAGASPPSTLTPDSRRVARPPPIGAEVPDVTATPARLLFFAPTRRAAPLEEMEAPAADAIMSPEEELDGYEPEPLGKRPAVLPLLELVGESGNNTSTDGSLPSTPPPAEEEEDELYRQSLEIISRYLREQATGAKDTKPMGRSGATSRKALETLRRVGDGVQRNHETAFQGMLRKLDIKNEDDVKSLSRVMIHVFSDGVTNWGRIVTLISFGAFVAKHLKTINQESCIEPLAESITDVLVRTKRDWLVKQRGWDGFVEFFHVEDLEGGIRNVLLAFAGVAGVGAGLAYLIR
Text: Intracellular binding Assays: To assess the binding of the CPSP-fusions to their respective protein target(s), cells were transfected with a GFP binding nanobody fraction coupled to nuclear lamina binding sequence (lamin B1). This nanobody binds to GFP tagged proteins and recruits them to the nuclear lamina allowing the recruitment and visualization of proteins interacting with the GFP tagged protein of interest. For example, GFP-MCL-1 can be expressed and localized to the nuclear lamina, followed by treatment of cells with TAMRA-labeled ATSP-7041/MCL-1 SAHBD fusion, followed by confocal microscopy imaging to monitor for the colocalization of TAMRA-labeled CPSP fusion at the nuclear lamina.

[3] = test system: mitochondria of the treated cells; assay: Co-labeling of TAMRA-labeled CPSP3 with MitoTracker; assay type: cell-based; details: 10 μM (FIG. 2); listed as TAMRA-labeled CPSP3
[4] = conjugated to CPSP3, 10 μM (FIG. 3B)

Substance	Distribution/Observations [1]	further results
* Ba X R r R X (SEQ ID NO: 13) [TAMRA-CPSP2]	Cytosol; Nucleus; Nucleolus; Endosomes; lysosomes	–
Ac B G V A D L I K K F E X I A K X E K* G G G G G X R r R X R B (SEQ ID NO: 21) (Ac-[Nle]GVADLIKKFE[S5]IAK[S5]EK(TAMRA)GGGGG[S5]R[dR]R[S5]R[Nle]; not fully specified (bridges); bridges not given here) [TAMRA-L-CPSP3]	Cytosol; Nucleus; Nucleolus; Endosomes; lysosomes;; also recorded: Actin filaments	delivery of the peptide into the cell [1, 4]: robust delivery of the peptide into the cell; intracellular localization [1, 4]: notable localization of L-CPSP3 to actin filaments
* Ba X R r R X Naph (SEQ ID NO: 17) [TAMRA-CPSP6]	Cytosol; Nucleus; Nucleolus; Endosomes; lysosomes	–
* Ba R K A L E T L R R V B D G V X R N H X T A F G G G G G L T F 8 E Y W A Q CycB X S A A (SEQ ID NO: 22) ([βAla]RKALETLRRV[Nle]DGV[S5]RNH[S5]TAFGGGGGLTF[R8]EYWAQ[CycB][S5]SAA; staple 16-20, 32-39 (inferred); reading uncertain; also: TAMRA label) [TAMRA-labeled MCL-1 SAHBD/ATSP-7041]	–	delivery to the cytosol of treated cells ([1]; 4 μM, 4 hours (FIG. 1, FIGS. 4A-B)): efficiently delivered to the cytosol; intracellular engagement of MCL-1 [2]: colocalization of the fusion to the nuclear lamina; intracellular engagement of MCL-1 ([2]; listed as CPSP-MCL-1 SAHBD conjugate): retains the capacity to engage its intracellular target
* Ba X R r R X R B G X R r R X R B (SEQ ID NO: 20) [TAMRA-CPSP9]	Cytosol; Nucleus; Nucleolus; Endosomes; lysosomes	–
* Ba LTF8EYWAQ CycB XSAAAGGGGGK (SEQ ID NO: 61) -[GCCTAGTTTATCACCAATAAT] (SEQ ID NO: 62) [TAMRA-ATSP-7041/PNA]	–	intracellular delivery ([1]; PNA fusion (FIG. 6)): robust intracellular delivery
* Ba X R R R X R B (SEQ ID NO: 18) [TAMRA-CPSP7]	Cytosol; Nucleus; Nucleolus; Endosomes; lysosomes	–
* Ba XRrRXRB-GZG-EALKKALRRHRFLWQR RQRA (SEQ ID NO: 63) ([βAla][S5]R[dR]R[S5]R[Nle]G[βAla]GEALKKALRRHRFLWQRRQRA; not fully specified (N-terminus, bridges); bridges not given here; also: TAMRA label) [TAMRA-CPSP3/vMIA]	–	intracellular delivery ([1]; 10 μM, 1 h (FIG. 7, bottom panel)): robust intracellular delivery
* Ba X R r R X R B (SEQ ID NO: 14) [TAMRA-CPSP3]	CPSP3 were enriched at mitochondria as well as Cytosol;; also recorded: Nucleus; Nucleolus; Endosomes; lysosomes	enrichment at the mitochondria (co-labeling with MitoTracker) [3]: Enrichment of TAMRA-labeled CPSP3 at the mitochondria
* Ba X R r R X R (SEQ ID NO: 12) [TAMRA-CPSP1]	Cytosol; Nucleus; Nucleolus; Endosomes; lysosomes	–
* Ba X R r R X R Naph (SEQ ID NO: 16) [TAMRA-CPSP5]	Cytosol; Nucleus; Nucleolus; Endosomes; lysosomes	–
* Ba X R r R X B (SEQ ID NO: 15) [TAMRA-CPSP4]	Cytosol; Nucleus; Nucleolus; Endosomes; lysosomes	–
* Ba X R r R X R B G B R X R r R X (SEQ ID NO: 19) [TAMRA-CPSP8]	Cytosol; Nucleus; Nucleolus; Endosomes; lysosomes	–

From patent publication US11952432B2, “Cell-permeable stapled peptide modules for cellular delivery” (Dana-Farber Cancer Institute, Inc., priority 2018, dated 2024)
